In patent US20040192640A1, “Use of sucralfate for the treatment of cervical erosion” (priority 2004, published 2004):

Legend:
[1] = test system: cervical erosion; test: Clinical test of topical intravaginal sucralfate gel for cervical erosion (colposcopic examination, signs and symptoms); assay type: in vivo, women; details: after six weeks of treatment (so in the source); both formulations together
Source text: Based on the observed colposcopic picture of the situation and on the seriousness of the possible accompanying inflammation state the patients under test have been classified according to a conventional classification of the cervical pathology, according to the following grade scheme.
Grade I: simple cervicitis; presence of mosaic-shaped lesions and ectopia; reduced leuconrhea and absence of dyspareunia (abnormal pain during sexual intercourse);
Grade II: cervicitis with extended erosion of the portio (30% of the surface); presence of altered epithelium; occasional blood discharge and occasional dyspareunia;
Grade III: cervicitis with extended erosion of the portio (50% of the surface); presence of ectopia; frequent blood discharge; leucorrhea and dyspareunia.
The 18 women, after final diagnosis, were divided into two test groups of nine patients each, in order to evaluate the effectiveness of the treatment according to the invention in two different formulations. The first formulation, continuing sucralfate at a concentration of 25% by weight as well as polycarbophil as a mucoadhesive/bioadhesive ingredient, corresponds to the preparation referred to above as Formulation 2, while the second formulation under test containing sucralfate at a concentration of 12.5% by weight as well as polycarbophil, corresponds to the Formulation 3. […]

[2] = test system: duodenal ulcer; details: oral dose of 1 g four times daily, for 4-8 weeks; cited from earlier work
[3] = test system: NSAID-induced ulceration; details: cited from earlier work

Substance: β-D-fructofuranosyl-α-D-glucopyranoside octakis(hydrogen sulfate) aluminium complex [sucralfate]
- Patients considered on complete recovery [1]: 16 patients out of 18
- Clinical effectiveness (cases) [2]: 75 % of cases
- Effectiveness in NSAID-induced ulceration, duodenal localizations ([3]; duodenal localizations): effective
- Effect in NSAID-induced ulceration, gastric lesions ([3]; when gastric lesions are present): only a symptomatic and non-reparative effect
